Reference: ChEMBL document CHEMBL5247680, “Design, Synthesis, and Biological Activity of Thioguanine-Modified Pleuromutilin Derivatives” (ACS Med Chem Lett, 2023)
Converted amounts (≈) assume the structure as drawn.

Experiments:
[1] = system: Staphylococcus epidermidis; experiment: Selectivity ratio of MBC for antibacterial activity against Methicillin-sensitive Staphylococcus epidermidis […] to MIC for antibacterial activity against Methicillin-sensitive Staphylococcus epidermidis […]; format: functional
Staphylococcus aureus [2] = experiment: Antibacterial activity against Methicillin-resistant Staphylococcus aureus ATCC 33591 assessed as bacterial growth inhibition incubated for 20 to 24 hrs by microbroth serial dilution assay; format: functional; conditions: time 20-24 hrs
Staphylococcus aureus [3] = experiment: Antibacterial activity against Methicillin-resistant Staphylococcus aureus ATCC 43300 assessed as bacterial growth inhibition incubated for 20 to 24 hrs by microbroth serial dilution assay; format: functional; conditions: time 20-24 hrs
[4] = system: Staphylococcus epidermidis; experiment: Antibacterial activity against Methicillin-resistant Staphylococcus epidermidis ATCC 51625 assessed as bacterial growth inhibition incubated for 20 to 24 hrs by microbroth serial dilution assay; format: functional; conditions: time 20-24 hrs
Staphylococcus aureus [5] = experiment: Antibacterial activity against Methicillin-sensitive Staphylococcus aureus ATCC 29213 assessed as bacterial growth inhibition incubated for 20 to 24 hrs by microbroth serial dilution assay
Staphylococcus aureus [6] = experiment: Antibacterial activity against Staphylococcus aureus ATCC 25923 assessed as bacterial growth inhibition incubated for 20 to 24 hrs by microbroth serial dilution assay; format: functional; conditions: time 20-24 hrs
Staphylococcus aureus [7] = experiment: Selectivity ratio of MBC for antibacterial activity against Staphylococcus aureus to MIC for antibacterial activity against Staphylococcus aureus; format: functional
[8] = system: Staphylococcus epidermidis; experiment: Antibacterial activity against Methicillin-sensitive Staphylococcus epidermidis ATCC 12228 assessed as bacterial growth inhibition incubated for 20 to 24 hrs by microbroth serial dilution assay; format: functional; conditions: time 20-24 hrs
Staphylococcus aureus [9] = experiment: Selectivity ratio of MBC for antibacterial activity against Methicillin-resistant Staphylococcus aureus ATCC 33591 to MIC for antibacterial activity against Methicillin-resistant Staphylococcus aureus ATCC 33591; format: functional
Staphylococcus aureus [10] = experiment: Selectivity ratio of MBC for antibacterial activity against Methicillin-sensitive Staphylococcus aureus ATCC 29213 to MIC for antibacterial activity against Methicillin-sensitive Staphylococcus aureus ATCC 29213
[11] = system: Staphylococcus epidermidis; experiment: Selectivity ratio of MBC for antibacterial activity against Methicillin-resistant Staphylococcus epidermidis ATCC 51625 to MIC for antibacterial activity against Methicillin-resistant Staphylococcus epidermidis ATCC 51625; format: functional

SMILES | Ratio [1] | MIC (Staphylococcus aureus [2]) | MIC (Staphylococcus aureus [3]) | MIC [4] | MIC (Staphylococcus aureus [5]) | MIC (Staphylococcus aureus [6]) | Ratio (Staphylococcus aureus [7]) | MIC [8] | Ratio (Staphylococcus aureus [9]) | Ratio (Staphylococcus aureus [10]) | Ratio [11]
C=C[C@]1(C)C[C@@H](OC(=O)CSc2nc(N)nc3c2ncn3C(=O)c2ccc(C)cc2)[C@@]2(C)C3C(=O)CC[C@@]3(CC[C@H]2C)[C@@H](C)[C@@H]1O (stereo not given in full) | >4 | 0.125 µg/mL (≈ 0.194 µM) | 0.25 µg/mL (≈ 0.387 µM) | 0.125 µg/mL (≈ 0.194 µM) | 0.125 µg/mL (≈ 0.194 µM) | 0.125 µg/mL (≈ 0.194 µM) | >4 | 0.0078 µg/mL (≈ 0.0121 µM) | – | – | –
C=C[C@]1(C)C[C@@H](OC(=O)CSc2nc(N)nc3c2ncn3C(=O)NCc2ccc(OC)cc2)[C@@]2(C)C3C(=O)CC[C@@]3(CC[C@H]2C)[C@@H](C)[C@@H]1O (stereo not given in full) | >4 | 0.0625 µg/mL (≈ 0.0905 µM) | 0.0625 µg/mL (≈ 0.0905 µM) | 0.0312 µg/mL (≈ 0.0452 µM) | 0.0625 µg/mL (≈ 0.0905 µM) | 0.125 µg/mL (≈ 0.181 µM) | >4 | < 0.0312 µg/mL | – | – | –
C=C[C@]1(C)C[C@@H](OC(=O)CSc2nc(NC(=O)CCl)nc3[nH]cnc23)[C@@]2(C)C3C(=O)CC[C@@]3(CC[C@H]2C)[C@@H](C)[C@@H]1O (stereo not given in full) | >4 | 0.5 µg/mL (≈ 0.828 µM) | 0.5 µg/mL (≈ 0.828 µM) | 0.25 µg/mL (≈ 0.414 µM) | 0.5 µg/mL (≈ 0.828 µM) | 0.5 µg/mL (≈ 0.828 µM) | >4 | 0.0156 µg/mL (≈ 0.0258 µM) | – | – | –
C=C[C@]1(C)C[C@@H](OC(=O)CSc2nc(N)nc3c2ncn3C(=O)Nc2cccc(NC(=O)OC(C)(C)C)c2)[C@@]2(C)C3C(=O)CC[C@@]3(CC[C@H]2C)[C@@H](C)[C@@H]1O (stereo not given in full) | >4 | 0.25 µg/mL (≈ 0.328 µM) | 0.25 µg/mL (≈ 0.328 µM) | 0.125 µg/mL (≈ 0.164 µM) | 0.25 µg/mL (≈ 0.328 µM) | 0.25 µg/mL (≈ 0.328 µM) | >4 | 0.0156 µg/mL (≈ 0.0205 µM) | 4 | 2 | –
C=C[C@]1(C)C[C@@H](OC(=O)CSc2nc(N)nc3c2ncn3C(=O)NCc2ccc(C)cc2)[C@@]2(C)C3C(=O)CC[C@@]3(CC[C@H]2C)[C@@H](C)[C@@H]1O (stereo not given in full) | >4 | 0.0625 µg/mL (≈ 0.0926 µM) | 0.0625 µg/mL (≈ 0.0926 µM) | 0.0625 µg/mL (≈ 0.0926 µM) | 0.125 µg/mL (≈ 0.185 µM) | 0.125 µg/mL (≈ 0.185 µM) | >4 | < 0.0312 µg/mL | – | 4 | –
C=C[C@]1(C)C[C@@H](OC(=O)CSc2nc(N)nc3c2ncn3C(=O)Nc2ccc(C(C)=O)cc2)[C@@]2(C)C3C(=O)CC[C@@]3(CC[C@H]2C)[C@@H](C)[C@@H]1O (stereo not given in full) | >4 | 0.0625 µg/mL (≈ 0.0907 µM) | 0.125 µg/mL (≈ 0.181 µM) | 0.125 µg/mL (≈ 0.181 µM) | 0.125 µg/mL (≈ 0.181 µM) | 0.062 µg/mL (≈ 0.09 µM) | >4 | 0.0156 µg/mL (≈ 0.0226 µM) | – | 4 | –
C=C[C@]1(C)C[C@@H](OC(=O)CSc2nc(NC(=O)CN3CCN(C)CC3)nc3[nH]cnc23)[C@@]2(C)C3C(=O)CC[C@@]3(CC[C@H]2C)[C@@H](C)[C@@H]1O (stereo not given in full) | >4 | 16 µg/mL (≈ 24 µM) | 32 µg/mL (≈ 47.9 µM) | 1 µg/mL (≈ 1.5 µM) | 8 µg/mL (≈ 12 µM) | 16 µg/mL (≈ 24 µM) | >4 | 4 µg/mL (≈ 5.99 µM) | – | 4 | –
C=C[C@]1(C)C[C@@H](OC(=O)CSc2nc(N)nc3c2ncn3C(=O)Nc2cccc(C(F)(F)F)c2)[C@@]2(C)C3C(=O)CC[C@@]3(CC[C@H]2C)[C@@H](C)[C@@H]1O (stereo not given in full) | >4 | 0.25 µg/mL (≈ 0.35 µM) | 0.25 µg/mL (≈ 0.35 µM) | 0.125 µg/mL (≈ 0.175 µM) | 0.125 µg/mL (≈ 0.175 µM) | 0.25 µg/mL (≈ 0.35 µM) | >4 | 0.0156 µg/mL (≈ 0.0218 µM) | – | – | 4
C=C[C@]1(C)C[C@@H](OC(=O)CSc2nc(N)nc3c2ncn3C(=O)Nc2ccccc2)[C@@]2(C)C3C(=O)CC[C@@]3(CC[C@H]2C)[C@@H](C)[C@@H]1O (stereo not given in full) | >4 | 0.125 µg/mL (≈ 0.193 µM) | 0.0625 µg/mL (≈ 0.0966 µM) | 0.125 µg/mL (≈ 0.193 µM) | 0.125 µg/mL (≈ 0.193 µM) | 0.125 µg/mL (≈ 0.193 µM) | >4 | 0.0156 µg/mL (≈ 0.0241 µM) | – | 4 | –
C=C[C@]1(C)C[C@@H](OC(=O)CSc2nc(N)nc3c2ncn3C(=O)NCc2ccc([N+](=O)[O-])cc2)[C@@]2(C)C3C(=O)CC[C@@]3(CC[C@H]2C)[C@@H](C)[C@@H]1O (stereo not given in full) | >4 | 0.25 µg/mL (≈ 0.354 µM) | 0.25 µg/mL (≈ 0.354 µM) | 0.0625 µg/mL (≈ 0.0885 µM) | 0.0625 µg/mL (≈ 0.0885 µM) | 0.125 µg/mL (≈ 0.177 µM) | >4 | < 0.0078 µg/mL | – | – | –
C=C[C@]1(C)C[C@@H](OC(=O)CSc2nc(N)nc3c2ncn3C(=O)Nc2cccc(F)c2)[C@@]2(C)C3C(=O)CC[C@@]3(CC[C@H]2C)[C@@H](C)[C@@H]1O (stereo not given in full) | >4 | 0.25 µg/mL (≈ 0.376 µM) | 0.25 µg/mL (≈ 0.376 µM) | 0.125 µg/mL (≈ 0.188 µM) | 0.0625 µg/mL (≈ 0.094 µM) | 0.25 µg/mL (≈ 0.376 µM) | >4 | 0.0156 µg/mL (≈ 0.0235 µM) | – | – | –
C=C[C@]1(C)C[C@@H](OC(=O)CSc2nc(N)nc3c2ncn3C(=O)NCc2ccccc2OC)[C@@]2(C)C3C(=O)CC[C@@]3(CC[C@H]2C)[C@@H](C)[C@@H]1O (stereo not given in full) | >4 | 0.125 µg/mL (≈ 0.181 µM) | 0.0625 µg/mL (≈ 0.0905 µM) | 0.0625 µg/mL (≈ 0.0905 µM) | 0.0625 µg/mL (≈ 0.0905 µM) | 0.125 µg/mL (≈ 0.181 µM) | >4 | 0.0156 µg/mL (≈ 0.0226 µM) | 4 | 2 | –
